The record followed here is PubChem BioAssay (NCI).

What all share (test): growth of human tumour cells (NCI), 48 h
The test system of experiment [1] is CCRF-CEM leukemia.
Experiment [2] deals with HCT-116 colon.
The subject of experiment [3] is HOP-92 NSCLC.
The subject of experiment [4] is K-562 leukemia.
For experiment [5], the system named is OVCAR-4 ovarian.
Experiment [6] deals with SF-295 CNS.
Experiment [7] concerns TK-10 renal.
The test system of experiment [8] is UACC-62 melanoma.
The test system of experiment [9] is CAKI-1 renal.

Each structure is given as a SMILES string.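 Protocol summary: plate cells (96-well), add compound at 5 concentrations, incubate 48 h, interpolate endpoints linearly. Here, GI50 denotes the concentration required for 50% inhibition of growth. TGI: concentration producing complete growth inhibition.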

Regarding `O=c1cc(-c2ccccc2)oc2cc(O)cc(O)c12`, the TGI is 59.6 µM in experiment [1]; 50.9 µM in experiment [2]; 38.7 µM in experiment [3]; 63.1 µM in [4]; more than 100 µM in [5]; 37.6 µM in experiment [6]. Moreover, the TGI was determined as 72.9 µM in experiment [7] and 76.5 µM in experiment [8].

As to `CN(C)CCSc1cccc(-c2cc(-c3cccc(SCCN(C)C)c3)nc(SCCN(C)C)n2)c1`, the TGI in experiment [1] came out at 4.8 µM; in [2], 2.95 µM; in [3], 6.87 µM; in [4] it was 3.1 µM; in [5] it was 3.04 µM; in experiment [6], 3.52 µM. Also, the TGI in experiment [7] turned out to be 9.65 µM; in [8], 32 µM.

`CCOC(=O)C(=O)Nc1ccc(Cl)cc1C`: the TGI in experiment [9], in [1], in [2], in [3], in experiment [4] and in experiment [5] was more than 100 µM throughout. In addition, the TGI in experiment [6], in experiment [7] and in [8] was more than 100 µM throughout.

`O=C(O)c1cc2ccccc2c(N=Nc2cc(C(F)(F)F)ccc2Cl)c1O`: the TGI in experiment [9], in experiment [1], in experiment [2], in [3], in experiment [4] and in [5] was more than 100 µM in each case. For the same molecule, the TGI in experiment [6] and in experiment [7] was more than 100 µM each time.

`COC(=O)CCC(=O)Nc1cc(Cl)ccc1Cl`: the TGI in experiment [9], in [1], in experiment [2], in experiment [3], in experiment [4] and in experiment [5] was more than 100 µM each time. Also, the TGI in [6] and in experiment [8] was more than 100 µM throughout.

For the molecule `CN(C)/N=C(/c1nc2ccc([N+](=O)[O-])cc2[nH]c1=O)C(O)c1ccco1` (centres undefined), the TGI in [9], in experiment [1], in [2], in [3], in experiment [4] and in experiment [5] was more than 100 µM throughout. The TGI in experiment [6] and in experiment [8] was more than 100 µM in each case.

On to `COc1ccc(C(=O)C(c2ccc(OC)cc2)C2OC(=O)C(Cl)=C2Cl)cc1` (centres undefined), for which the TGI in [9], in experiment [1], in [2], in [3], in experiment [4] and in [5] was more than 100 µM throughout. For the same molecule, the TGI in [6], in [7] and in experiment [8] was more than 100 µM each time.

With `CC(=O)OC1CC2Oc3ccc(C)cc3C(C)(O2)C1=O` (centres undefined), the TGI in [1], in [2], in experiment [4], in [6], in experiment [7] and in [8] was more than 100 µM throughout.

On to `O=Cc1ccc(-c2ccc(-c3nc4ccccc4o3)cc2)s1`, for which the GI50 in experiment [9] was 25.2 µM; in experiment [1], 5680 nM; in experiment [2], 19.3 µM; in experiment [3] it was more than 100 µM; in experiment [4], 37 µM; in experiment [5], 34.9 µM. Besides, the GI50 in [6] was 24.2 µM; in experiment [7] it was 33.6 µM; in experiment [8], 30.7 µM. The TGI in experiment [9] was 61.1 µM; in experiment [1], more than 100 µM; in experiment [2], 42.6 µM; in [3], more than 100 µM; in experiment [4] it was more than 100 µM; in [5] it was more than 100 µM. In addition, the TGI turned out to be 87.8 µM in experiment [6], 81.3 µM in experiment [7] and 98.8 µM in experiment [8].

In the case of `S=C(Nc1ccc(Cl)cc1)Nc1ccc(-c2nc3ccccc3o2)cc1`, the GI50 in experiment [9] is 12.3 µM; in experiment [1] it was 62 nM; in experiment [2], 13.6 µM; in experiment [3] it was 17.2 µM; in [4], 22.6 µM; in experiment [5] it was 25.1 µM. Moreover, the results for the GI50 in experiment [6], in experiment [7] and in experiment [8] were 13.7 µM, 21.2 µM and 12.7 µM, respectively. Besides, the TGI was 39.8 µM in [9]; 19.3 µM in [1]; 26.4 µM in experiment [2]; 50.4 µM in experiment [3]; more than 100 µM in experiment [4]; more than 100 µM in experiment [5]. Also, the TGI amounted to 42.8 µM in experiment [6], 74.1 µM in [7] and 27.7 µM in [8].

As to `O/N=C1/C(=C/c2ccc(Oc3ccccc3)cc2)CCCC1C(NO)c1ccc(Oc2ccccc2)cc1` (centres undefined), the TGI in experiment [9] is 88.6 µM; in experiment [1], 61.2 µM; in [2] it was 24.6 µM; in [3], 56.3 µM; in [4], more than 100 µM; in experiment [5], more than 100 µM. Further, the TGI in experiment [6], in experiment [7] and in experiment [8] was more than 100 µM throughout.
